Measured values as given in patent publication US20240075050A1, “Methods and Compositions for Treating Leucine Rich Repeat Kinase 2 (LRRK2)-Associated Disorder or Condition” (University of Connecticut, priority 2022, published 2024).

Experiments:
[1] = system: DCP2; experiment: DCP2 expression levels in SH-SY5Y cells, Western blot; type: cell-based, human; details: 1 mM, 48 hours
Protocol: FIGS. 6A-6E depict that the decapping enzyme complex DCP1/2 is involved in LRRK2 mRNA decay. FIGS. 6A and 6B depict the DCP1A and DCP2 expression levels upon AICAr treatment. SH-SY5Y cells were treated with or without 1 mM AICAr for 48 hours. DCP1A and DCP2 expression levels were analyzed by Western blot. Images were quantified by ImageJ software. Data are mean±SEM, n=3 independent experiments. **p<0.01 by Student's t tests. FIGS. 6C and 6D depict the LRRK2 expression levels upon DCP1A or DCP2 overexpression. SH-SY5Y cells were transduced with lentiviruses carrying Flag-DCP1A or Flag-DCP2 for 48 hours. LRRK2 expression levels were analyzed by Western blot. Images were quantified by ImageJ software. Data are mean±SEM, n=3 independent experiments. *p<0.05 by Student's t tests. FIG. 6E depict LRRK2 mRNA decapping by DCP1A and DCP2. Recombinant DCP1A and DCP2 proteins were purified from HEK 293T cells and incubated with [α-32P]cap-labeled LRRK2 RNA. LRRK2 mRNA decapping was analyzed by one-dimensional thin layer chromatography.

[2] = system: LRRK2; experiment: LRRK2 levels in mouse primary neurons, microglia, astrocytes, Western blot; type: cell-based; details: 1 mM, 48 hours
Protocol: FIGS. 2A-2T depicts that AICAr, the precursor of ATIC substrate, regulates LRRK2 expression levels and neuronal toxicity. FIGS. 2A and 2B depict the overexpressed LRRK2 levels in HEK 293T cells upon AICAr treatment. HEK293 cells were transfected with MYC-LRRK2 and treated with or without 1 mM AICAr for 48 hours. LRRK2 levels were analyzed by Western blot. FIGS. 2C and 2D depict the LRRK2 expression levels in SH-SY5Y cells upon AICAr treatment. Human neuroblastoma SH-SY5Y cells were treated with or without 1 mM AICAr for 48 hours. LRRK2 expression levels were analyzed by Western blot. FIGS. 2E and 2F depict the overexpressed (3-glucocerebrosidase (GCase) levels upon AICAr treatment. HEK 293T cells were transfected with V5-GCase and treated with or without 1 mM AICAr for 48 hours. GCase levels were analyzed by Western blot. FIGS. 2G-2N depict the LRRK2 expression levels in primary neurons (FIG. 2G and FIG. 2H), microglia (FIG. 2I and FIG. 2J), astrocytes (FIG. 2K and FIG. 2L) and human fibroblasts (FIG. 2M and FIG. 2N) upon AICAr treatment. Mouse primary cortical neurons, microglia, astrocytes or human fibroblasts from a health control were treated with or without 1 mM AICAr for 48 hours. LRRK2 expression levels were analyzed by Western blot. FIGS. 2O and 2P depict the overexpressed LRRK2 WT and pathogenic mutant levels upon AICAr treatment. […] LRRK2 expression levels were analyzed by Western blot. […] One day after injection, striatal tissues near the injection sites were collected and LRRK2 expression levels were analyzed by Western blot. Images were quantified by ImageJ software. […] FIG. 2T depicts the quantification of neuronal viability. Bars indicate the viability (n>100) for each transfection condition expressed as a percent of control neurons (eGFP with pcDNA3.1 empty vector). Data represent the mean±SEM from three independent experiments with n>100 cells quantified in each experiment. *p<0.05, ***p<0.001, ****p<0.0001 by one-way ANOVA followed by a Tukey's post hoc test.

[3] = system: LRRK2-G2019S transgenic flies; experiment: LRRK2-induced DA neurodegeneration in LRRK2-G2019S transgenic Drosophila; type: in vivo; details: 9-week-old flies, fly food with 1 mM AICAr from posteclosion
Text: Administration of AICAr into LRRK2 Drosophila. Ddc-GAL4 and UAS-GFP fly lines were obtained from Bloomington Stock Center. pUAST-attB-LRRK2 WT and G2019S were microinjected into Drosophila embryos (BestGene Inc.)^30. The resulting transgenic flies were crossed with Ddc-GAL4>UAS-GFP, which induces the co-expression of GFP, […] LRRK2 in dopamine and serotonin neurons. To study the effects of AICAr on LRRK2-induced dopaminergic neurodegeneration, flies were fed with regular fly food supplemented with 1 mM AICAr immediately at the posteclosion until 9-week-old.

[4] = system: LRRK2 mRNA; experiment: LRRK2 mRNA levels by real-time PCR in SH-SY5Y cells; type: cell-based, human; details: 24 hours
Protocol: Real-Time PCR (qPCR). SH-SY5Y WT or AUF1-KO cells were treated with or without 2 mM AICAr for 24 hours, and total RNA was extracted from 3×10^5 cells of each treatment using TRIzol™ Reagent (Invitrogen) as per the manufacturer's introductions. Real-Time PCR (qPCR) assay was performed using GoTaq® 2-Step RT-PCR System (Promega) as per the manufacturer's introductions. Briefly, total cDNA was reversely transcribed from RNA pools (1.5 μg RNA in a 10 μl reaction mixture) using random primers. The qPCR reaction was run in CFX96 qPCR detection system (Bio-Rad) with 3 μl cDNA (1:20 dilution) in a 10 μl reaction mixture (Table 3), and set at 95° C. for 2 minutes followed by 40 amplification cycles of 95° C. for 15 seconds, 60° C. for 1 min with a melting curve, 95° C. for 15 seconds, 60° C. for 1 min, a ramp from 60° C. to 95° C. at an 1% rate, and 95° C. for 15 seconds. Melt curves were monitored to assess qPCR amplicons, and critical threshold (Ct) values were collected with an enclosed software. Relative gene expression was analyzed by normalization against Ct values of f-ACTIN (housekeeping gene) and then determined by comparison with expression levels of control sample using the relative expression index (2-ΔΔCt) method.

Structure (SMILES): NC(=O)c1ncn([C@@H]2O[C@H](CO)[C@@H](O)[C@H]2O)c1N [AICAr, 5-aminoimidazole-4-carboxamide riboside]
- endogenous levels of DCP2 [1]: significantly increased
- LRRK2 levels in astrocytes ([2]; mouse primary astrocytes): remained unchanged
- LRRK2 levels in neurons ([2]; mouse primary cortical neurons): significantly decrease
- LRRK2 levels in microglia ([2]; mouse primary microglia): significantly decrease
- LRRK2-GS induced DA neurodegeneration (DA neuron numbers) [3]: rescued
- LRRK2 mRNA level in AUF1-KO cells ([4]; SH-SY5Y AUF1-KO cells): minimal effect
- LRRK2 mRNA levels ([4]; SH-SY5Y WT, 2 mM, real-time PCR): significantly decreased
